{
  "source": "patent US20080306094A1",
  "about": "(priority 2005, published 2008)",
  "key": {"[1]": {"system": "Calu-6 tumour xenograft", "assay": "Calu-6 tumour xenograft in vivo solid tumour model", "conditions": "once-daily oral, 28 days"}, "[2]": {"system": "HUVEC", "assay": "HUVEC assay, endothelial cell proliferation", "assay_type": "cell-based", "conditions": "Homo sapiens"}},
  "note": "Read-outs that look alike come from different tables or passages of the source.",
  "data": [
    {"compound": "COc1cc2c(Oc3ccc4[nH]c(C)cc4c3F)ncnc2cc1OCCCN1CCCC1", "note": "[AZD2171, 4-(4-fluoro-2-methyl-1H-indol-5-yloxy)-6-methoxy-7-(3-(pyrrolidin-1-yl)propoxy)quinazoline]", "values": [
      {"measurement": "inhibition of growth of Calu-6 tumour xenograft", "setting": "[1]; 1.5 mg/kg/day, P<0.01 one-tailed t test", "result": 49, "unit": "%"},
      {"measurement": "inhibition of growth of Calu-6 tumour xenograft", "setting": "[1]; 3 mg/kg/day, P<0.0001 one-tailed t test", "result": 69, "unit": "%"},
      {"measurement": "inhibition of growth of Calu-6 tumour xenograft", "setting": "[1]; 6 mg/kg/day, P<0.0001 one-tailed t test", "result": 91, "unit": "%"},
      {"measurement": "IC50", "setting": "[2]; VEGF-stimulated, read-out: IC50, VEGF-stimulated endothelial cell proliferation", "result": "0.4 ± 0.2", "unit": "nM"},
      {"measurement": "IC50", "setting": "[2]; basal, read-out: IC50, basal endothelial cell proliferation", "result": "> 500", "unit": "nM"}
    ]}
  ]
}
